Measurements reported in patent publication US20080132536A1, “PYRAZOLO [3,4-B] PYRIDINE COMPOUNDS, AND THEIR USE AS PDE4 INHIBITORS” (Glaxo Group Limited, priority 2003, published 2008).

Target: T1, PDE4B (human recombinant) (Homo sapiens, UniProt Q07343)
T1 construct: made in house
Experiment: PDE4B inhibition, radioactive SPA and/or IMAP fluorescence polarisation (FP) assay
Assay type: biochemical
Details: for IC50: one reading or average of several (ca. 2-6) readings, SPA and/or FP assay, range given for a group of Examples, read-out: PDE4B pIC50 (±about 0.5) (converted); for PDE4B inhibitory activity compared with the comparable Example of opposite stereochemistry at the CR4R5 (benzylic) carbon atom: comparators: Examples 6, 7, 29, 26, 64, 126, 124, 170, 177
Excerpt: Human recombinant PDE4B, in particular the 2B splice variant thereof (HSPDE4B2B), is disclosed in WO 94/20079 and also M. M. McLaughlin et al., “A low Km, rolipram-sensitive, cAMP-specific phosphodiesterase from human brain: cloning and expression of cDNA, biochemical characterisation of recombinant protein, and tissue distribution of mRNA”, J. Biol. Chem., 1993, 268, 6470-6476. For example, in Example 1 of WO 94/20079, human recombinant PDE4B is described as being expressed in the PDE-deficient yeast Saccharomyces cerevisiae strain GL62, e.g. after induction by addition of 150 uM CuSO4, and 100,000×g supernatant fractions of yeast cell lysates are described for use in the harvesting of PDE4B enzyme.
The ability of compounds to inhibit catalytic activity at PDE4B or 4D (human recombinant), PDE3 (from bovine aorta), PDE5 (human recombinant) or PDE6 (from bovine retina) can optionally be determined by Scintillation Proximity Assay (SPA) in 96-well format.
Test compounds (as a solution in DMSO, preferably about 2 microlitre (ul) volume of DMSO solution) are preincubated at ambient temperature (room temperature, e.g. 19-23° C.) in Wallac Isoplates (code 1450-514) with PDE enzyme in 50 mM Tris-HCl buffer pH 7.5, 8.3 mM MgCl2, 1.7 mM EGTA, 0.05% (w/v) bovine serum albumin for 10-30 minutes (usually 30 minutes). The enzyme concentration is adjusted so that no more than 20% hydrolysis of the substrate defined below occurs in control wells without compound, during the incubation. For the PDE3, PDE4B and PDE4D assays, [5′,8-3H]Adenosine 3′,5′-cyclic phosphate (Amersham Pharmacia Biotech, code TRK.559; or Amersham Biosciences UK Ltd, Pollards Wood, Chalfont St Giles, Buckinghamshire HP8 4SP, UK) is added to give 0.05 uCi per well and about 10 nM final concentration. For the PDE5 and PDE6 assays, [8-^3H]Guanosine 3′,5′-cyclic phosphate (Amersham Pharmacia Biotech, code TRK.392) is added to give 0.05 uCi per well and about 36 nM final concentration. Plates containing assay mixture, preferably approx. 100 ul volume of assay mixture, are mixed on an orbital shaker for 5 minutes and incubated at ambient temperature for 1 hour. Phosphodiesterase SPA beads (Amersham Pharmacia Biotech, code RPNQ 0150) are added (about 1 mg per well) to terminate the assay. Plates are sealed and shaken and allowed to stand at ambient temperature for 35 minutes to 1 hour (preferably 35 minutes) to allow the beads to settle. Bound radioactive product is measured using a WALLAC TRILUX 1450 Microbeta scintillation counter. For inhibition curves, 10 concentrations (1.5 nM-30 uM) of each compound are assayed. Curves are analysed using ActivityBase and XLfit (ID Business Solutions Limited, 2 Ocean Court, Surrey Research Park, Guildford, Surrey GU2 7QB, United Kingdom) Results are expressed as pIC50 values.
The ability of compounds to inhibit catalytic activity at PDE4B (human recombinant) or PDE4D (human recombinant) can optionally be determined by IMAP Fluorescence Polarisation (FP) assay (IMAP Explorer kit, available from Molecular Devices Corporation, Sunnydale, Calif., USA; Molecular Devices code: R8062) in 384-well format.
The IMAP FP assay is able to measure PDE activity in an homogenous, non-radioactive assay format. The FP assay uses the ability of immobilised trivalent metal cations, coated onto nanoparticles (tiny beads), to bind the phosphate group of Fl-AMP that is produced on the hydrolysis of fluorescein-labelled (Fl) cyclic adenosine mono-phosphate (Fl-cAMP) to the non-cyclic Fl-AMP form. […] Binding of Fl-AMP product to the beads (coated with the immobilised trivalent cations) slows the rotation of the bound Fl-AMP and leads to an increase in the fluorescence polarisation ratio of parallel to perpendicular light. Inhibition of the PDE reduces/inhibits this signal increase. […]

T1 sequence (Q07343 1-564 isoform Q07343-2): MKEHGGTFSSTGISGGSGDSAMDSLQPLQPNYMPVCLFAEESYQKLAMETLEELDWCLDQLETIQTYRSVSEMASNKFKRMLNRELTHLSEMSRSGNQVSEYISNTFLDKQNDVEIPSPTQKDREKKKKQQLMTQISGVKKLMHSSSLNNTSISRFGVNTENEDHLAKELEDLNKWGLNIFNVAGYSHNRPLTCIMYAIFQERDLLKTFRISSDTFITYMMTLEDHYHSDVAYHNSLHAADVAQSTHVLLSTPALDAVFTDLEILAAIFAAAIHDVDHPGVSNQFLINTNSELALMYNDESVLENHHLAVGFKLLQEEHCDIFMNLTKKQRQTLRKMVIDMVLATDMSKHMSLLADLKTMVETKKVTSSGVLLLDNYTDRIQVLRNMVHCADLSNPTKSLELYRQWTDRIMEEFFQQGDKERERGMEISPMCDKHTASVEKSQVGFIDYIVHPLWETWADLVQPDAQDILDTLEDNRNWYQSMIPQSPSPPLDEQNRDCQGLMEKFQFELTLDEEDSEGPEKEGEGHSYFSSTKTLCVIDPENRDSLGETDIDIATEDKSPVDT

Row | SMILES | IC50 | PDE4B inhibitory activity compared with the comparable Example of opposite stereochemistry at the CR4R5 (benzylic) carbon atom
1 | CCn1ncc2c(NC3CCOCC3)c(C(=O)N[C@H](C)c3cccc4ccccc34)cnc21 [Example 37, 1-ethyl-N-[(1R)-1-(1-naphthalenyl)ethyl]-4-(tetrahydro-2H-pyran-4-ylamino)-1H-pyrazolo[3,4-b]pyridine-5-carboxamide] | 12.6 to 25.1 nM | 
2 | CCn1ncc2c(NC3CCOCC3)c(C(=O)NC(C)c3ccc(C)cc3)cnc21 (centres unmarked) [Example 48, 1-ethyl-N-[1-(4-methylphenyl)ethyl]-4-(tetrahydro-2H-pyran-4-ylamino)-1H-pyrazolo[3,4-b]pyridine-5-carboxamide] | 0.1 to 2 nM | 
3 | CCn1ncc2c(NC3CCOCC3)c(C(=O)NC(C)c3ccc(Br)cc3)cnc21 (centres unmarked) [Example 50, N-[1-(4-bromophenyl)ethyl]-1-ethyl-4-(tetrahydro-2H-pyran-4-ylamino)-1H-pyrazolo[3,4-b]pyridine-5-carboxamide] | 0.794 to 5.01 nM | 
4 | CCn1ncc2c(NC3CCOCC3)c(C(=O)N[C@H](C)c3ccc(OC)cc3)cnc21 [Example 63, 1-ethyl-N-{(1R)-1-[4-(methyloxy)phenyl]ethyl}-4-(tetrahydro-2H-pyran-4-ylamino)-1H-pyrazolo[3,4-b]pyridine-5-carboxamide] | 0.794 to 5.01 nM | greater PDE4B inhibitory activity
5 | CCn1ncc2c(NC3CCOCC3)c(C(=O)N[C@@H](C)c3ccc(OC)cc3)cnc21 [Example 64, 1-ethyl-N-{(1S)-1-[4-(methyloxy)phenyl]ethyl}-4-(tetrahydro-2H-pyran-4-ylamino)-1H-pyrazolo[3,4-b]pyridine-5-carboxamide] | 31.6 to 70.8 nM | 
6 | CCn1ncc2c(NC3CCOCC3)c(C(=O)N[C@H](C)c3ccc(C)cc3)cnc21 [Example 73, 1-ethyl-N-[(1R)-1-(4-methylphenyl)ethyl]-4-(tetrahydro-2H-pyran-4-ylamino)-1H-pyrazolo[3,4-b]pyridine-5-carboxamide] | 0.1 to 2 nM | 
7 | CCn1ncc2c(NC3CCOCC3)c(C(=O)N[C@H](C)c3ccc(Br)cc3)cnc21 [Example 75, N-[(1R)-1-(4-bromophenyl)ethyl]-1-ethyl-4-(tetrahydro-2H-pyran-4-ylamino)-1H-pyrazolo[3,4-b]pyridine-5-carboxamide] | 0.794 to 5.01 nM | 
8 | CCC(NC(=O)c1cnc2c(cnn2CC)c1NC1CCOCC1)c1ccc(C)cc1C (centres unmarked) [Example 98, N-[1-(2,4-dimethylphenyl)propyl]-1-ethyl-4-(tetrahydro-2H-pyran-4-ylamino)-1H-pyrazolo[3,4-b]pyridine-5-carboxamide] | 0.1 to 2 nM | 
9 | CCn1ncc2c(NC3CCCCC3)c(C(=O)N[C@H](C)c3ccc(C)cc3)cnc21 [Example 139, 4-(cyclohexylamino)-1-ethyl-N-[(1R)-1-(4-methylphenyl)ethyl]-1H-pyrazolo[3,4-b]pyridine-5-carboxamide] | 0.1 to 2 nM | 
10 | CC[C@@H](NC(=O)c1cnc2c(cnn2CC)c1NC1CCN(C(C)=O)CC1)c1ccccc1 [Example 174, 4-[(1-acetyl-4-piperidinyl)amino]-1-ethyl-N-[(1R)-1-phenylpropyl]-1H-pyrazolo[3,4-b]pyridine-5-carboxamide] |  | greater PDE4B inhibitory activity
11 | CCn1ncc2c(NC3CCC(=O)CC3)c(C(=O)N[C@H](C)c3ccc([N+](=O)[O-])cc3)cnc21 [Example 178, 1-ethyl-N-[(1R)-1-(4-nitrophenyl)ethyl]-4-[(4-oxocyclohexyl)amino]-1H-pyrazolo[3,4-b]pyridine-5-carboxamide] |  | greater PDE4B inhibitory activity

Continued, values first:

Row | IC50 | PDE4B inhibitory activity compared with the comparable Example of opposite stereochemistry at the CR4R5 (benzylic) carbon atom | SMILES
12 | 31.6 to 70.8 nM |  | CCn1ncc2c(NC3CCOCC3)c(C(=O)N[C@@H](C)c3ccccc3)cnc21 [Example 7, 1-ethyl-N-[(1S)-1-phenylethyl]-4-(tetrahydro-2H-pyran-4-ylamino)-1H-pyrazolo[3,4-b]pyridine-5-carboxamide]
13 | 0.794 to 5.01 nM | greater PDE4B inhibitory activity | CCn1ncc2c(NC3CCOCC3)c(C(=O)N[C@H](C)c3ccccc3)cnc21 [Example 8, 1-ethyl-N-[(1R)-1-phenylethyl]-4-(tetrahydro-2H-pyran-4-ylamino)-1H-pyrazolo[3,4-b]pyridine-5-carboxamide]
14 | 0.794 to 5.01 nM |  | CCn1ncc2c(NC3CCOCC3)c(C(=O)NC(CCO)c3ccccc3)cnc21 (centres unmarked) [Example 13, 1-ethyl-N-(3-hydroxy-1-phenylpropyl)-4-(tetrahydro-2H-pyran-4-ylamino)-1H-pyrazolo[3,4-b]pyridine-5-carboxamide]
15 | 0.794 to 5.01 nM | greater PDE4B inhibitory activity | CCn1ncc2c(NC3CCOCC3)c(C(=O)N[C@H](COC)c3ccccc3)cnc21 [Example 24, 1-ethyl-N-[(1S)-2-(methyloxy)-1-phenylethyl]-4-(tetrahydro-2H-pyran-4-ylamino)-1H-pyrazolo[3,4-b]pyridine-5-carboxamide]
16 | 31.6 to 70.8 nM |  | CCn1ncc2c(NC3CCOCC3)c(C(=O)N[C@@H](C(N)=O)c3ccccc3)cnc21 [Example 25, N-[(1R)-2-amino-2-oxo-1-phenylethyl]-1-ethyl-4-(tetrahydro-2H-pyran-4-ylamino)-1H-pyrazolo[3,4-b]pyridine-5-carboxamide]
17 | 31.6 to 70.8 nM |  | CCn1ncc2c(NC3CCOCC3)c(C(=O)N[C@@H](CO)c3ccccc3)cnc21 [Example 26, 1-ethyl-N-[(1R)-2-hydroxy-1-phenylethyl]-4-(tetrahydro-2H-pyran-4-ylamino)-1H-pyrazolo[3,4-b]pyridine-5-carboxamide]
18 | 0.794 to 5.01 nM | greater PDE4B inhibitory activity | CCn1ncc2c(NC3CCOCC3)c(C(=O)N[C@H](CO)c3ccccc3)cnc21 [Example 28, 1-ethyl-N-[(1S)-2-hydroxy-1-phenylethyl]-4-(tetrahydro-2H-pyran-4-ylamino)-1H-pyrazolo[3,4-b]pyridine-5-carboxamide]
19 | 31.6 to 70.8 nM |  | CCn1ncc2c(NC3CCOCC3)c(C(=O)N[C@@H](COC)c3ccccc3)cnc21 [Example 29, 1-ethyl-N-[(1R)-2-(methyloxy)-1-phenylethyl]-4-(tetrahydro-2H-pyran-4-ylamino)-1H-pyrazolo[3,4-b]pyridine-5-carboxamide]
20 | 12.6 to 25.1 nM |  | CCn1ncc2c(NC3CCOCC3)c(C(=O)N[C@@H](C)c3cccc4ccccc34)cnc21 [Example 38, 1-ethyl-N-[(1S)-1-(1-naphthalenyl)ethyl]-4-(tetrahydro-2H-pyran-4-ylamino)-1H-pyrazolo[3,4-b]pyridine-5-carboxamide]
21 |  | greater PDE4B inhibitory activity | CCn1ncc2c(NC3CCCCC3)c(C(=O)N[C@H](CO)c3ccccc3)cnc21 [Example 127, 4-(cyclohexylamino)-1-ethyl-N-[(1S)-2-hydroxy-1-phenylethyl]-1H-pyrazolo[3,4-b]pyridine-5-carboxamide]
22 |  | greater PDE4B inhibitory activity | CCn1ncc2c(NC3CCCCC3)c(C(=O)N[C@H](COC)c3ccccc3)cnc21 [Example 129, 4-(cyclohexylamino)-1-ethyl-N-[(1S)-2-(methyloxy)-1-phenylethyl]-1H-pyrazolo[3,4-b]pyridine-5-carboxamide]
